# In US7968526B2, “Antisense oligonucleotides directed to ribonucleotide reductase R2 and uses thereof in the treatment of cancer” (Lorus Therapeutics Inc., priority 2003, dated 2011):
# Entries after “also recorded” stand apart in the source; their conditions may differ.
# Columns and labels:
# Assay type in all cases: in vivo, human cells in mice
# [1] = test system: A498 human kidney cancer cells; assay: A498 kidney tumour growth in SCID mice (3.9)
# Description: (§1) Treatments lasted for 14 days thereafter. Antitumour activities were estimated by the inhibition of tumour volume, which was measured with a caliper on four different occasions over the treatment period. Each point represents mean tumour volume calculated from 5 animals per experimental group. […] Control animals (control) received saline alone for the same period. At the end of the treatments, the animals were sacrificed, tumours were excised and their weights were measured. Each bar represents mean tumour weight calculated from 6 animals per experimental group. […] Treatments lasted for 24 days thereafter. Antitumour activities were estimated by the inhibition of tumour volume, which was measured with a caliper at two-day intervals over the treatment period. Each point represents mean tumour volume calculated from 4 animals per experimental group. […] Treatments lasted for 24 days thereafter. Antitumour activities were estimated by the inhibition of tumour volume, which was measured with a caliper at two-day intervals over the treatment period. Each point represents mean tumour volume calculated from 4 animals per experimental group. […] Each point represents mean tumour volume calculated from 5 animals per experimental group. […] Antitumour activities were estimated by the inhibition of tumour volume, which was measured with a caliper on four different occasions over 16-day period. […]
# [2] = test system: DU145 human prostatic cancer cells; assay: DU145 prostatic tumour xenograft in SCID mice, combination with mitoxantrone (1.5)
# Description: (§2) After 52 days the mice were sacrificed and the tumours weighed. […] In both experiments, PC-3 human prostatic cancer cells (1×10^7 cells in 100 μl of PBS) were subcutaneously injected into the right flank of 6-7 weeks old male SCID mice. After the size of tumour reached an approximate volume of 50 mm^3, 14 days post tumour cell injection, SEQ ID NO: 1 was administered by bolus infusion into the tail vein every other day at 10 mg/kg 18 times (FIG. 4A) or 17 times (FIG. 4B), respectively. Control animals received saline alone for the same period. Antitumour effect of SEQ ID NO:1 was further compared to that of mitoxantrone (novantrone) alone or in combination. Mitoxantrone was administered intravenously once at the beginning of the treatments at a dose of 2 mg/kg (FIG. 4A) or once a week for four weeks at a reduced dose of 0.8 mg/kg (FIG. 4B). All treatments were stopped at day 50 (FIG. 4A) or 48 (FIG. 4B), respectively. A day after the last treatment, tumours were excised from the animals and their weights were measured. […] In both experiments, DU145 human prostatic cancer cells (1×10^7 cells in 100 μl of PBS) were subcutaneously injected into the right flank of 6-7 weeks old male SCID mice. After the size of tumour reached an approximate volume of 50 mm^3, 13 (FIG. 5A) or 11 (FIG. 5B) days post tumour cell injection, SEQ ID NO:1 was administered by bolus infusion into the tail vein every other day at 10 mg/kg 15 times (FIG. 5A) or 14 times (FIG. 5B), respectively. Control animals received saline alone for the same period. Antitumour effect of SEQ ID NO:1 was further compared to that of mitoxantrone (novantrone) alone or in combination. Mitoxantrone was administered intravenously once at the beginning of the treatments at a dose of 2 mg/kg (FIG. 5A) or once a week for four weeks at a reduced dose of 0.8 mg/kg (FIG. 5B). All treatments were stopped at day 42 (FIG. 5A) or 38 (FIG. 5B), respectively. A day after the last treatment, tumours were excised from the animals and their weights were measured.
# [3] = test system: SK-OV-3 human ovarian cancer cells; assay: SK-OV-3 ovary tumour growth in Balb/c nude mice (3.4)
# Description: Treatments lasted for 14 days thereafter. Antitumour activities were estimated by the inhibition of tumour volume, which was measured with a caliper on four different occasions over the treatment period. Each point represents mean tumour volume calculated from 5 animals per experimental group. […] Control animals (control) received saline alone for the same period. At the end of the treatments, the animals were sacrificed, tumours were excised and their weights were measured. Each bar represents mean tumour weight calculated from 6 animals per experimental group. […] Treatments lasted for 24 days thereafter. Antitumour activities were estimated by the inhibition of tumour volume, which was measured with a caliper at two-day intervals over the treatment period. Each point represents mean tumour volume calculated from 4 animals per experimental group. […] Treatments lasted for 24 days thereafter. Antitumour activities were estimated by the inhibition of tumour volume, which was measured with a caliper at two-day intervals over the treatment period. Each point represents mean tumour volume calculated from 4 animals per experimental group. […] Each point represents mean tumour volume calculated from 5 animals per experimental group. […] Antitumour activities were estimated by the inhibition of tumour volume, which was measured with a caliper on four different occasions over 16-day period. Each point represents mean tumour volume calculated from 5 animals per experimental group. […] Antitumour activities were estimated by the inhibition of tumour volume, which was measured with a caliper at two-day intervals over the treatment period. Each point represents mean tumour volume calculated from 5 animals per experimental group. […] Antitumour activities were estimated by the inhibition of tumour volume, which was measured with a caliper at various time intervals over the span of 30 days. Each point represents mean tumour volume calculated from 6 animals per experimental group. […] Antitumour activities were estimated by the inhibition of tumour volume, which was measured with a caliper. […]
# [4] = test system: human Burkitt's lymphoma (Raji) cells; assay: Survival of SCID mice bearing human Burkitt's lymphoma (Raji)
# Description: Mice with established human Burkitt's lymphoma tumours were treated every second day with either saline or SEQ ID NO:1 for 44 days as described above. The control group mice all died from disease progression by day 20. At day 44, the SEQ ID NO:1 mice continued treatment on a weekly basis until stopping the treatment at day 73.
# As an additional test of efficacy SEQ ID NO:1 was administered to SCID mice bearing active Burkitt's lymphoma (FIG. 30). Viable human Burkitt's lymphoma (Raji) cells (5×10^6) collected from subconfluent logarithmically growing cultures were injected i.v. into each animal and disease was allowed to establish for 2 days. SEQ ID NO:1, SEQ ID NO:3 and SEQ ID NO:2, in normal saline were administered by tail vein injection every second day at a dose of 10 mg/kg. At day 40 the treatment schedule was reduced to 10 mg/kg every 3 days. Control animals received saline alone, without oligonucleotide. Survival is presented as a percentage of the starting number of mice over time.
# [5] = test system: PC-3 human prostatic cancer cells; assay: PC-3 prostatic tumour xenograft in SCID mice, combination with mitoxantrone (1.4); settings: PC-3, SCID mice; SEQ ID NO:1 10 mg/kg i.v. every other day 18 times; mitoxantrone 2 mg/kg i.v. once
# Description: as §2
# [6] = test system: A2058 human melanoma cells; assay: A2058 melanoma xenograft in CD-1 nude mice, combination with DTIC (1.6); settings: SEQ ID NO:1 10 mg/kg i.v. every other day, DTIC 80 mg/kg i.v. days 6-10
# Description: After 52 days the mice were sacrificed and the tumours weighed. […] Mitoxantrone was administered intravenously once at the beginning of the treatments at a dose of 2 mg/kg (FIG. 4A) or once a week for four weeks at a reduced dose of 0.8 mg/kg (FIG. 4B). All treatments were stopped at day 50 (FIG. 4A) or 48 (FIG. 4B), respectively. […] Mitoxantrone was administered intravenously once at the beginning of the treatments at a dose of 2 mg/kg (FIG. 5A) or once a week for four weeks at a reduced dose of 0.8 mg/kg (FIG. 5B). All treatments were stopped at day 42 (FIG. 5A) or 38 (FIG. 5B), respectively. […] A2058 is a metastatic melanoma cell line. […] All treatments were stopped at day 24. […] Taxol was administered intravenously once a week at a dose of 10 mg/kg for three (FIG. 7A) or four weeks (FIG. 7C). Doxorubicin was administered intravenously once a week at a dose of 5 mg/kg for first three weeks (FIG. 7A) or for two weeks (FIG. 7C). All treatments were stopped at day 33 (FIG. 7A) or at day 26 (FIG. 7C), respectively. […] In FIG. 7C, antitumour activities were estimated by the inhibition of tumour volume, which was measured with calipers. Each point represents mean tumour volume calculated from 10 animals per experimental group. […] Taxol was administered intravenously once a week for first three weeks and intraperitoneally once a week for next two weeks at a dose of 10 mg/kg. Cisplatin was administered intravenously once a week for first three weeks and intraperitoneally once a week for next two weeks at a dose of 4 mg/kg. All treatments were stopped at day 40. Antitumour activities were estimated by the inhibition of tumour volume, which was measured with caliper. Each point represents mean tumour volume calculated from 9 animals per experimental group.
# [7] = test system: A2058 human skin cancer cells; assay: A2058 melanoma growth in CD-1 nude mice (3.2)
# Description: as §1
substance,measurement,setting,value
"5′-GGCTAAATCGCTCCACCAAG-3′ (all phosphorothioate, sugars by position and methylation of C not given here) [SEQ ID NO: 1, fully phosphorothioated antisense oligonucleotide that hybridizes to the coding region of R2 mRNA]","Inhibitory effect on tumour growth (tumour volume, FIG. 21B)","[1]; A498, SCID mice, 10 mg/kg i.v. every other day to day 52","powerful inhibitory effects on the growth of human renal carcinoma cells, resulting in total regression of the tumours"
same,Tumour regression,[1]; Human Renal Carcinoma^2 (third entry of Table 5),Complete regression of all tumours in treated
same,Tumour weight as % of saline control,"[2]; DU145 (prostatic), SCID, second of two printed values (two independent experiments), SEQ ID NO:1 10 mg/kg i.v. every other day, mitoxantrone i.v.",41%
same,"Antitumour effect (tumour weight, FIG. 5A)","[2]; DU145, SCID mice, SEQ ID NO:1 10 mg/kg i.v. every other day 15 times, mitoxantrone 2 mg/kg i.v. once",significant delay of tumour growth compared to saline control
same,Inhibition of tumour weight,[3]; Human Ovary Adenocarcinoma,tumour weight of approximately 50%
same,Inhibition of tumour size,"[3]; Human Ovary Adenocarcinoma in Balb/c Nu-Nu mice, Days 19 to 25 after tumour implantation",Inhibition of tumour size by approximately 35%
same,"Inhibitory effect on tumour growth (tumour volume, FIG. 18C)","[3]; SK-OV-3, Balb/c nude mice, 10 mg/kg i.v. every other day, 22 days",statistically significant inhibitory effects on the growth of human ovary adenocarcinoma cells
same,Survival of mice,"[4]; SCID mice (Example 7, FIG. 30), 10 mg/kg i.v. every second day, from day 40 every 3 days, 10 mg/kg",survived to the end of the study; also recorded: dramatic increase in survival time of mice well beyond the treatment period
same,Survival of mice,"[4]; SCID mice, 10 mg/kg i.v. every second day, stopped at day 42, sacrificed day 73, untreated all died within 23 days","survived beyond day 73 except one mouse, which died at day 69"
same,Survival of mice,"[4]; second independent study, every second day for 44 days then weekly until day 73, controls all died by day 20",All mice survived to the end of the experimental period (140 days)
same,"Antitumour effect (tumour weight, FIG. 4A)",[5],significant delay of tumour growth compared to saline control
same,Tumour weight as % of saline control,"[6]; A2058 (melanoma), CD-1",20%
same,"Antitumour effect (tumour weight, FIG. 6)","[6]; A2058, CD-1 nude mice",significant delay of tumour growth compared to saline control; also recorded: superior to the inhibitory effects observed with DTIC alone
same,"Inhibitory effect on tumour growth (tumour volume, FIG. 18A)","[7]; A2058, CD-1 nude mice, 10 mg/kg i.v. every other day, 24 days",strong inhibitory effects on the growth of human melanoma
same,Inhibition of tumour weight,[7]; Human Melanoma,~80%
